Earlier results as cited in patent EP0225409A1, “Organic amine phosphonic acid complexes for the treatment of calcific tumors” (THE DOW CHEMICAL COMPANY, priority 1985, dated 1987).

Conditions: 24 hours after injection

- injected dose present in the thyroid: 0.1%
SMILES: NC(c1ccc(O)c([131I])c1)(P(=O)(O)O)P(=O)(O)O [α-amino-(3-iodo-4-hydroxybenzylidene)diphosphonate]
